# Patent US20070037752A1, “Novel alanyl-amino peptidase inhibitors for functionally influencing different cells and treating immunological, inflammatory, neuronal, and other diseases” (priority 2003, published 2007)
# Target: alanyl aminopeptidases (APN) (Homo sapiens, UniProt P15144)
# Assay: Inhibition of alanyl aminopeptidase enzymatic activity, fluorogenic substrate (Ala)2-rhodamine 110
# Assay type: biochemical
# Details: Table 3, starred values = ID50; read-out: ID50 APN (values marked with *)
# Method: The inhibition characteristics measured are referred to as IC-50 values or ID50 values (the latter marked with “*”) for said enzyme. The enzymatic activity was determined by means of the fluorogenic substrate/product (Ala)2-rhodamine 110.
# Sequence of alanyl aminopeptidases (APN) (P15144 whole entry, species assumed): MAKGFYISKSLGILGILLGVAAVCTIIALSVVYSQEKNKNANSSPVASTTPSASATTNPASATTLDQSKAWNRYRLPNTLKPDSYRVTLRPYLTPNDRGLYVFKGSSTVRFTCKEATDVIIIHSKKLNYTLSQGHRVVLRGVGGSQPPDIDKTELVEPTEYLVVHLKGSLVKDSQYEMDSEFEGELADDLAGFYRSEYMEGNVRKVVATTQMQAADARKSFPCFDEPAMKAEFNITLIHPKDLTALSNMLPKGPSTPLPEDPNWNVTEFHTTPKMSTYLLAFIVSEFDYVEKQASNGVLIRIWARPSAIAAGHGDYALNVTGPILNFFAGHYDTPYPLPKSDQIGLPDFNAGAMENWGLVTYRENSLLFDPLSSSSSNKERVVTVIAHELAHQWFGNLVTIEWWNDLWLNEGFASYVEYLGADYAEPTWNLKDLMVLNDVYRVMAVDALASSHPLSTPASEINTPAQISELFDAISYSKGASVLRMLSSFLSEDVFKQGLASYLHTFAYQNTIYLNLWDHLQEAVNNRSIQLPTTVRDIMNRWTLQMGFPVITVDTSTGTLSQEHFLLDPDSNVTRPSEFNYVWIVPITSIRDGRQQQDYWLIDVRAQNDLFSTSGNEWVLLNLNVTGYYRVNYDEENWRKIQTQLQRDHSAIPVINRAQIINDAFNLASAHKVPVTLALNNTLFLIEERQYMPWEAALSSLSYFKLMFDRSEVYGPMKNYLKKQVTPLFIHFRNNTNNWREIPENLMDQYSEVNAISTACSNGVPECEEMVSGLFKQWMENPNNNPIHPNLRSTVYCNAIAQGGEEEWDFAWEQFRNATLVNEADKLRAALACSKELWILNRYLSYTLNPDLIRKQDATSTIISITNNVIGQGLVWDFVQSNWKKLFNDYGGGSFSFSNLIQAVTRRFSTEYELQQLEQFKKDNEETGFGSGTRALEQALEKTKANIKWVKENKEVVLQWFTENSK
row,Compound,IC50 [µM]
1,Cc1cccc(C(=O)Nc2ccc(C(=O)N/N=C/c3ccc4c(c3)OCO4)cc2)c1 [A3.203],33.8
2,CC1=C(C#N)C(=O)N(CC(C)O)C(=O)/C1=C/c1ccc(-c2ccc(Br)cc2)o1 (centres unmarked) [A3.252],47.2
3,O=C(O)CC1S/C(=N/N=C/c2ccco2)NC1=O (centres unmarked) [A3.254],48.1
4,O=C(CNC(=O)c1ccccc1)N/N=C/c1ccco1 [A3.259],49.4
5,Cc1ccc(Cn2c(SCCC(=O)O)nc3c2c(=O)[nH]c(=O)n3C)cc1 [A3.267],53.2
6,Cc1ccc(/C=C(\NC(=O)c2ccccc2)C(=O)NCCN2CCOCC2)o1 [A3.273],55
7,CC(=O)Nc1cccc(C(=O)N/N=C/c2ccc(C)o2)c1 [A3.285],63.1
8,COc1ccc(C(=O)NCC(=O)N/N=C/c2ccco2)cc1OC [A3.288],64.9
9,O=c1cc(CSc2nnc(-c3ccco3)c(-c3ccco3)n2)c2ccccc2[nH]1 [A3.289],65.1
10,COc1ccc(CSCC(=O)N/N=C/c2ccco2)cc1 [A3.291],66
11,Cc1cccc(C(=O)Nc2ccc(C(=O)N/N=C/c3ccco3)cc2)c1 [A3.293],67.1

# Same assay, conditions: Table 3, unstarred values; read-out: IC50APN
row,Compound,IC50 [µM]
1,Cc1cc(C(=O)N/N=C/c2ccc(C)o2)[nH]n1 [A3.191],31.8
2,O=C(CNC(=O)c1ccccc1Br)N/N=C/c1ccoc1 [A3.192],31.9
3,CCCOC(=O)c1cc(-c2ccc(/C=C3/C(=O)N(CC(C)O)C(=O)C(C#N)=C3C)o2)ccc1Cl (centres unmarked) [A3.193],32
4,Cc1ccc(C(=O)N/C(=C\c2ccco2)C(=O)N2CCCN(C)CC2)cc1C [A3.194],32.1
5,Nc1nc2nc(-c3ccco3)cc(C(F)(F)F)n2n1 [A3.195],32.1
6,O=C(CC(=O)N/N=C/c1ccco1)N/N=C/c1ccco1 [A3.196],32.4
7,CC1=C(C#N)C(O)=NC(=O)/C1=C/c1ccc(-c2ccc(Cl)cc2Cl)o1 [A3.197],32.4
8,Cc1ccc(C(=O)N/C(=C/c2ccco2)C(=O)N(C)C)cc1 [A3.198],32.5
9,O=C(N/N=C/c1ccco1)c1ccc(NC(=O)c2ccccc2Cl)cc1 [A3.199],32.5
10,CC(=O)N1CCOC1(C)c1ccc([N+](=O)[O-])cc1 (centres unmarked) [A3.200],32.8
11,CCOc1ccc(-c2cc(C(=O)N/N=C/c3ccco3)[nH]n2)cc1OC [A3.201],33.4
12,CCOC(=O)C1=C(N)NC2=C(CCCC2)C12C(=O)Nc1ccccc12 (centres unmarked) [A3.202],33.6
13,Cc1ccccc1NC(=O)C1C(c2cccs2)C(C#N)=C(SCC(=O)Nc2ccc(Br)cc2)NC1(C)O (centres unmarked) [A3.204],33.9
14,CC(C)C1N=C(Cc2cccnc2)N(CCCN2CCCC2=O)C1C(=O)NCc1ccccc1 (centres unmarked) [A3.205],34
15,O=C(CCC(=O)Nc1cccc(Cl)c1)N/N=C/c1ccco1 [A3.206],34
16,Cc1ccc(/C=N/NC(=O)c2ccc(F)cc2)o1 [A3.207],34.4
17,CCOC(=O)C1CCN(C(=O)/C(=C/c2ccco2)NC(=O)c2ccc(C)c(C)c2)CC1 [A3.209],34.5
18,O=C(Nc1ccccc1C(=O)N/N=C/c1ccco1)c1ccccc1Cl [A3.210],34.7
19,COc1ccccc1C(=O)N/N=C/c1ccc(C)o1 [A3.211],34.7
20,O=C(N/N=C/c1ccco1)c1cccc(I)c1 [A3.212],34.7
21,CSc1nnc2n(/N=C/c3ccco3)cnn12 [A3.213],34.7
22,CC(=O)n1cc(/C=C/C=N/NC(=O)CC#N)c2ccccc21 [A3.214],35.5
23,COc1ccc(C2NCCS2)cc1Br (centres unmarked) [A3.215],35.7

row,Compound,IC50 [µM]
1,COc1cc(-c2cc(C(=O)N/N=C/c3ccco3)[nH]n2)ccc1OC(C)C [A3.216a],36.1
2,Cc1cccc(C(=O)Nc2cccc(C(=O)N/N=C/c3ccc(C)o3)c2)c1 [A3.216b],36.2
3,COc1cc(Br)ccc1OCC(=O)N/N=C(C)/C=C/c1ccco1 [A3.217],36.3
4,Cc1ccc(OCC(=O)N/N=C/c2ccco2)cc1C [A3.218],36.3
5,CC(/C=N/NC(=O)C(O)c1ccccc1)=C\c1ccco1 (centres unmarked) [A3.219],36.3
6,Cc1c(Cl)cccc1NC(=O)CCC(=O)N/N=C/c1ccco1 [A3.220],36.6
7,CCCOC(=O)c1cc(-c2ccc(/C=C3\C(=O)NC(=O)C(C#N)=C3C)o2)ccc1Cl [A3.221],36.8
8,O=[N+]([O-])c1ncn(CN2CCOCC2)n1 [A3.222],36.6
9,O=C1C(Cc2ccc3[nH]ccc3c2)NC(=S)N1c1ccccc1 (centres unmarked) [A3.223],36.9
10,CC1CCN(S(=O)(=O)c2ccc3c(c2)C(Cl)(Cl)C(=O)N3)CC1 [A3.224],37.2
11,O=C(Nc1ccc(F)cc1)c1ccc([NH+]([O-])O)o1 (centres unmarked) [A3.226],37.4
12,O=C(N/N=C/c1ccco1)c1ccccc1 [A3.227],37.7
13,COc1ccc2ccccc2c1-c1cc(C(=O)N/N=C(\C)c2ccco2)[nH]n1 [A3.228],38.2
14,O=C(N/N=C/c1ccco1)c1ccc(O)cc1O [A3.229],38.3
15,CC(=O)Nc1ccc(C(=O)N/N=C/c2ccco2)cc1 [A3.230],38.4
16,O=C(OCC1CCCO1)c1cc([N+](=O)[O-])cc([N+](=O)[O-])c1 (centres unmarked) [A3.231],39.3
17,O=C(N/N=C/c1ccco1)c1ccn[nH]1 [A3.232],40.3
18,CCOC(=O)c1cc(-c2ccc(/C=C3\C(=O)N(CCCO)C(=O)C(C#N)=C3C)o2)ccc1Cl [A3.233],41
19,O=C(CCC(=O)Nc1ccccc1)N/N=C/c1ccco1 [A3.234],41.1
20,O=[N+]([O-])c1ncn(CCBr)n1 [A3.235],41.1
21,COc1ccc(C(=O)/C=C/c2ccc(-c3ccccc3)o2)cc1 [A3.236],41.2
22,COc1ccc(OC)c(-c2cc(C(=O)N/N=C/c3ccco3)[nH]n2)c1 [A3.237],43.2
23,O=C(Cn1cnc2ccccc21)N/N=C/c1ccco1 [A3.238],43.3

row,Compound,IC50 [µM]
1,COC(=O)C(NC(=O)c1ccccc1)(Nc1sc2c(c1C#N)CCC(C(C)(C)C)C2)C(F)(F)F (centres unmarked) [A3.239],43.6
2,O=C(/C=C/c1ccco1)Nc1cccc(C(=O)O)c1 [A3.240],44.2
3,Cc1ccc(/C=N/NC(=O)c2ccc(N3CCCC3=O)cc2)o1 [A3.241],44.2
4,O=C(N/N=C1/C(=O)Nc2ccc(F)cc21)/C(=C/c1ccccc1)NC(=O)c1ccccc1 [A3.242],44.2
5,COc1ccccc1C(=O)N/N=C/c1ccco1 [A3.243],44.7
6,CC1CCN(C(=O)/C(=C\c2ccco2)NC(=O)c2ccccc2)CC1 [A3.244],45
7,Cc1ccc(/C=C/C(=O)Nc2ccccc2C(N)=O)o1 [A3.245],45
8,Cc1ccccc1C(=O)Nc1ccc(C(=O)N/N=C/c2ccco2)cc1 [A3.246],45.4
9,O=C(N/N=C/c1cccc([N+](=O)[O-])c1)c1ccco1 [A3.247],45.4
10,CC(C)Oc1ccc(Br)cc1C(=O)N/N=C/c1ccco1 [A3.248],46.6
11,Nc1nonc1-n1nnc(C(=O)N/N=C/c2ccco2)c1-c1ccccc1 [A3.249],46.6
12,CCn1c(/C=C/c2ccco2)nc2ccccc21 [A3.250],46.6
13,COc1ccc(N(C(C)C(=O)N/N=C/c2ccco2)S(C)(=O)=O)cc1 (centres unmarked) [A3.251],47
14,O=C(COc1ccc2ccccc2c1Br)N/N=C/c1ccco1 [A3.253],47.3
15,Cc1cc(C(=O)N/N=C/c2ccco2)[nH]n1 [A3.255],48.2
16,CSCCC(Nc1ncnc2c1oc1ccccc12)C(=O)O (centres unmarked) [A3.256],48.4
17,CCOC(=O)C(NC(=O)c1ccc(OC)cc1)(N1CCCC1=O)C(F)(F)F (centres unmarked) [A3.257],48.7
18,O=C(C[N+](=O)[O-])C1=CC2OC=CC2N1 (centres unmarked) [A3.258],49.5
19,CCOC(=O)c1cc(Br)ccc1-c1ccc(/C=C2\C(=O)N=C(O)C(C#N)=C2C)o1 [A3.260],49.9
20,NC(=S)N/N=C/c1ccco1 [A3.261],50
21,CCOC(=O)c1ncn(C)c1N [A3.262],50.1
22,Cc1ccc(/C=N/NC(=O)c2cc(C)oc2C)o1 [A3.263],50.2
23,CCCCCCCC(=O)N/N=C/c1ccco1 [A3.264],50.3

row,Compound,IC50 [µM]
1,Cc1ccc(/C=N\NC(=O)Cc2cccs2)o1 [A3.265],51.1
2,CC1CCc2c(sc(NC(=O)C(C(F)(F)F)C(F)(F)F)c2C#N)C1 (centres unmarked) [A3.266],51.3
3,CCOC(=O)c1cc(-c2ccc(/C=C3/C(=O)NC(=O)C(C#N)=C3C)o2)ccc1Cl [A3.268],52.1
4,CC(/C=C/c1ccco1)=N\NC(=O)COc1ccc(C(C)(C)C)cc1 [A3.269],50
5,CCCOC(=O)c1cc(-c2ccc(/C=C3\C(=O)N(CCO)C(=O)C(C#N)=C3C)o2)ccc1Cl [A3.270],54
6,O=C(N/N=C/c1cc(Br)ccc1OC(=O)c1ccc([N+](=O)[O-])cc1)/C(=C\c1ccc2c(c1)OCO2)NC(=O)c1ccccc1 [A3.271],54.2
7,CC(=O)c1ccc(NC(=O)/C=C/c2ccc(C)o2)cc1 [A3.272],54.4
8,O=C(CNS(=O)(=O)c1ccc2c(c1)OCCO2)N/N=C/c1ccco1 [A3.274],55.6
9,O=C(NCCc1ccccc1)/C(=C\c1ccco1)NC(=O)c1ccccc1 [A3.275],55.8
10,COc1ccccc1NC(=O)/C=C\c1ccco1 [A3.276],56.4
11,COc1ccc(OC)c(NC(=O)/C=C/c2ccc(C)o2)c1 [A3.277],56.8
12,C/C(=N\NC(=O)c1cc(-c2ccccc2)n[nH]1)c1ccco1 [A3.278],58.3
13,CCOc1ccccc1NC(=O)c1c(NCc2cccc(OC)c2)sc2c1CCC2 [A3.279],58.4
14,O=C(CNC(=O)c1ccccc1F)N/N=C/c1ccc([N+](=O)[O-])o1 [A3.280],60
15,O=C(Nc1ccccc1F)c1ccc([N+](=O)[O-])o1 [A3.281],62.4
16,O=C(N/N=C/C=C\c1ccco1)c1cccs1 [A3.282],62.7
17,O=C(N/N=C/c1ccco1)c1cccc(Br)c1 [A3.283],62.7
18,Cc1ccc(/C=N/NC(=O)COc2cccc(Cl)c2)o1 [A3.284],62.7
19,O=[N+]([O-])c1ccc(C2OCN3COCC23)cc1 (centres unmarked) [A3.287],64.5
20,Cc1nc(NC(C)C(=O)O)c2nc(C)oc2n1 (centres unmarked) [A3.290],65.8
21,O=C1C(Cc2ccc(O)cc2)NC(=S)N1c1ccccc1 (centres unmarked) [A3.292],66.6
